Assay results as given in paper PMC9171067, “A High Throughput Cell-Based Screen Assay for LINE-1 ORF1p Expression Inhibitors Using the In-Cell Western Technique” (Frontiers in Pharmacology, 2022).
Where two headings read alike, the source gives them in different places.

Columns and labels:
[1] = tested on: LINE-1 retrotransposition; experiment: LINE-1 retrotransposition dual-luciferase assay (pWA367 reporter) in HeLa cells; type: cell-based, human; details: 10 μM
Experimental: This assay is utilized to measure the influence of the compounds on LINE-1 retrotransposition or the L1 5′UTR promoter activity. A 200:1 ratio of FL-L1 or pWA367 and pCMV-Rluc was transfected into HeLa cells, Rluc was served as a control to normalize the Firefly luciferase activity level. Six hours post-transfection, cells were reseeded in 96-well plates, and the plates were incubated for up to 1 day. Next, compounds #1:Hydroxyprogesterone (10μM, 20 μM), # 2: 2,2':5′,2″-Terthiophene (10μM, 20 μM) and # 3: Ethynyl estradiol (10μM, 20 μM) were added. 72–96 h after adding tested compounds to the cells, 25 μl passive lysis buffer was added in each well to lyse cells, and then, 20 μl lysate was detected by dual-luciferase reporter assay system (Promega, USA). Furthermore, the activity levels of Renilla and Firefly luciferase were quantified using Promega Luciferase Assay Kit (Promega) on a Berthold microplate reader.

[2] = CCK-8 cell viability (CC50) in T-47D cells; type: cell-based; details: human
Experimental: (§1) The 50% cytotoxic concentration (CC50) values of 5 drug leads were measured using normal […] cell line HUVEC and breast cancer cell line T-47D at 6 different inhibitor concentrations. HUVEC and T47-D cell lines in the logarithmic phase were reseeded into 96-well plates (Nest Inc.) at a density of 1×10^3 cells/well and the plates were incubated for up to 2 days. At the end of each experiment, cells were incubated with 10 µl of the CCK-8 reagent (Vazyme) at 37°C for 2 h. The optical density (OD) at 450 nm was measured by a microplate reader (PerkinElmer Inc.) according to the manufacturer’s instructions. The data are expressed as % of the control. The experiments were repeated at least three times. The 50% effective concentration (EC50) of 5 drugs were measured using breast cancer cell line T-47D and 6 different inhibitor concentrations.

LINE-1 5'-UTR promoter = experiment: L1-FL luciferase reporter driven by the LINE-1 5'-UTR promoter in 293 T cells; type: cell-based, human
LINE-1 ORF1p expression [3] = experiment: In-Cell Western (ICW) assay of LINE-1 ORF1p expression in T-47D cells; type: cell-based, human; details: for EC50: Homo sapiens, T47D, T-47D cells 15000/well, serially diluted compound, 24 h incubation, ICW, read-out: EC50 for diminishing LINE-1 ORF1p expression level; for Inhibition Activity (%) of LINE-1 ORF1p expression: ICW screen, T47D cells, compounds 10 μM, 48 h
Experimental: T-47D cells grown at 1×10^3 cells per well in 96-well plates (Corning Incorporated Costar, #3603). After 24 h incubation, chemical compounds (10 μM) were added to each well. After 48 h incubation, plates were fixed with 4% paraformaldehyde (PFA) for 20min at room temperature (RT). Then the cells were permeabilized with 0.2% Triton X-100 for 15min at RT, and blocked with Odyssey Blocking Buffer (TBS) (LI-COR, 9275000) for 1 h at RT. The cells were incubated at 4°C overnight with a rabbit monoclonal anti-ORF1p antibody (diluted 1:200, Abcam) and a mouse monoclonal anti-beta-actin antibody (diluted 1:250, Abcam) with gentle shakes. After five washes with PBS, the cells were stained with an IRDye® 800RD Goat anti-Rabbit antibody (diluted 1:400, LI-COR, #926–68071) and IRDye® 680CW Goat anti-Mouse antibody (1:600, LI-COR, #926–32210) at RT for 2 h. The microplates, were scanned with the Odyssey system (LI-COR), and the integrated fluorescence intensities representing the protein expression levels were acquired using Image Studio Ver 5.2 software ([Egorina et al., 2006]). Compared with DMSO control, compounds with an inhibition rate over 50% were defined as promising compounds.
as §1

NCl-H446 cells = experiment: CCK8 cell proliferation assay, NCl-H446; type: cell-based, human; details: IFNα17 200 or 500 Units/mL, 6 days
Experimental: (§2) To analyze the anti-proliferation effects of the three compounds and IFN17α against carcinoma cells, NCI-H661, NCI-H446, T47-D, MRC-5 and WI-38 cell lines in the logarithmic phase were reseeded into 96-well plates (Nest Inc.) at a density of 1×10^4 cells/well and the plates were incubated for 24 h. Next, IFN17α (200U/mL) was incubated with NCI-H661, NCI-H446, T47-D and MRC-5 cells, compounds #1(Hydroxyprogesterone), #2 (2,2':5′,2″-Terthiophene) and #3 (Ethynyl estradiol) were added at the concentrations of 10μM and 20 μM respectively, for consecutive 6 days. Cells were incubated with 10 µl of the CCK-8 reagent (Vazyme) each day at 37°C for 2 h. The optical density (OD) at 450 nm was measured by a microplate reader (PerkinElmer Inc.) according to the manufacturer’s instructions. The experiments were repeated at least three times.

LINE-1 RNA = experiment: RT-qPCR of LINE-1 RNA level in T-47D cells; type: cell-based, human; details: IFNα17 200 Units/mL, 48 h
From the text: Total RNA was extracted from cells using TRIZOL Reagent (Invitrogen). RNA was reverse transcribed to cDNA using MLV Reverse Transcriptase (Invitrogen) with random primers. The cDNAs were quantified using SsoFast EvaGreen Supermix (Bio-Rad) with Bio Rad iCycler iQ5 Real-Time PCR systems. Primer sequences for cDNAs were as follows: (5′-AATGAGATCACATGGACACAGGAAG-3’/5′- TGTATACATGTGCCATGCTGGTGC-3′).

LINE-1 ORF1p expression [4] = experiment: Immunoblotting of LINE-1 ORF1p in T-47D cells; type: cell-based, human; details: 48 h
Experimental: Cells were collected and lysed with NP-40 buffer (Beyotime). The protein lysis was boiled for 20 min at 100 C in SDS-PAGE loading buffer. Equal amounts of cell lysate were […]. Proteins were transferred onto a PVDF membrane, blocked with 5% skim milk, and probed with anti-ORF1p antibody (diluted 1:1000) and anti-β-actin antibody (diluted 1:5,000) at 4°C overnight. After four wash steps with PBS plus 0.1% Tween 20 (PBST), the membrane was incubated with 1:5,000 dilution of HRP-conjugated goat-anti-mouse, HRP-conjugated goat-anti-rabbit, IRDye® 800CW Goat anti-Rabbit 926–32,211 (1:10,000, LI-COR) and IRDye® 700CW Goat anti-Mouse 926–32,210 (1:10,000, LI-COR) secondary antibodies for 1 h at room temperature. After four wash steps with PBS plus 0.1% Tween 20 (PBST), signals were detected using Western Lightning chemiluminescence reagent or analyzed with the Odyssey infrared imaging system and the software program as specified in the Odyssey software manual.

NCl-H661 cells = experiment: CCK8 cell proliferation assay, NCl-H661; type: cell-based, human; details: IFNα17 200 or 500 Units/mL, 6 days
Experimental: as §2

T47D cells = experiment: CCK8 cell proliferation assay, T47D; type: cell-based, human; details: IFNα17 500 Units/mL, 6 days
Experimental: To analyze the anti-proliferation effects of the three compounds and IFN17α against carcinoma cells, NCI-H661, NCI-H446, T47-D, MRC-5 and WI-38 cell lines in the logarithmic phase were reseeded into 96-well plates (Nest Inc.) at a density of 1×10^4 cells/well and the plates were incubated for 24 h. […] Cells were incubated with 10 µl of the CCK-8 reagent (Vazyme) each day at 37°C for 2 h. The optical density (OD) at 450 nm was measured by a microplate reader (PerkinElmer Inc.) according to the manufacturer’s instructions. The experiments were repeated at least three times.

Compound: C#C[C@]1(O)CC[C@H]2[C@@H]3CCc4cc(O)ccc4[C@H]3CC[C@@]21C [#3, Ethynyl estradiol]
- effect on LINE-1 retrotransposition (Fluc/Rluc) [1]: best potent activity
- CC50 ([2]; T-47D breast cancer cells, T-47D cells 1000/well, CCK-8, read-out: CC50): 91.4 µM
- suppression of luciferase value (L1-FL) (LINE-1 5'-UTR promoter; 10 μM): over 60%
- EC50 (LINE-1 ORF1p expression [3]): 12.4 µM
- Inhibition Activity (%) of LINE-1 ORF1p expression (LINE-1 ORF1p expression [3]): 60%

Compound: IFNα17: interferon used as positive control in inhibiting LINE-1 ORF1p expression level in the ICW assay
- effect of IFNα17 on proliferation of NCl-H446 (NCl-H446 cells): significantly decrease
- suppression of LINE-1 RNA level (LINE-1 RNA): over 60%
- effect on LINE-1 ORF1p level by immunoblotting (LINE-1 ORF1p expression [4]): obviously decrease ORF1p level in a dose-dependent manner
- effect of IFNα17 on proliferation of NCl-H661 (NCl-H661 cells): significantly decrease
- effect of IFNα17 on proliferation of T47D (T47D cells): inhibition became obvious
- effect on luciferase value (L1-FL) (LINE-1 5'-UTR promoter; IFNα17 200 Unit/mL, 500 Unit/mL): mild effects
- effect on ICW fluorescence value (ORF1p) (LINE-1 ORF1p expression [3]; T-47D cells, increasing doses of IFNα17): decreased fluorescence value in a dose-dependent way

Compound: c1csc(-c2ccc(-c3cccs3)s2)c1 [#2, 2,2':5′,2″-Terthiophene]
- CC50 [2]: 95.5 µM
- effect on luciferase value (L1-FL) (LINE-1 5'-UTR promoter; 10 μM): mild effects
- EC50 (LINE-1 ORF1p expression [3]): 32.3 µM
- Inhibition Activity (%) of LINE-1 ORF1p expression (LINE-1 ORF1p expression [3]): 56%

Compound: Cc1cn([C@H]2C=C[C@@H](CO)O2)c(=O)[nH]c1=O [d4T, reference compound]
- effect on LINE-1 retrotransposition (Fluc/Rluc) [1]: inhibited LINE-1 retrotransposition
- effect on LINE-1 ORF1p level by immunoblotting (LINE-1 ORF1p expression [4]): little effect
